In patent US20160280699A1, “SUBSTITUTED PHENYLALANINE DERIVATIVES” (BAYER PHARMA AKTIENGESELLSCHAFT, priority 2013, published 2016):
Counter-ions that a name gives are not always drawn.

Target: T1, human factor XIa (Homo sapiens, UniProt P03951)
T1 construct: purchased Kordia
Test: Measurement of FXIa inhibition (fluorogenic peptide substrate Boc-Glu(OBzl)-Ala-Arg-AMC)
Assay type: biochemical
Conditions: factor XIa from Kordia, 15 min preincubation, 30 min at 22° C., fluorescence
Protocol: The factor XIa inhibition of the substances according to the invention is determined using a biochemical test system which utilizes the reaction of a peptidic factor XIa substrate to determine the enzymatic activity of human factor XIa. Here, factor XIa cleaves from the peptic factor XIa substrate the C-terminal aminomethylcoumarin (AMC), the fluorescence of which is measured. The determinations are carried out in microtitre plates.
Test substances are dissolved in dimethyl sulphoxide and serially diluted in dimethyl sulphoxide (3000 μM to 0.0078 μM; resulting final concentrations in the test: 50 μM to 0.00013 μM). In each case 1 μl of the diluted substance solutions is placed into the wells of white microtitre plates from Greiner (384 wells). Subsequently, the following are added successively: 20 μl of assay buffer (50 mmol/l Tris buffer pH 7.4; 100 mmol/l sodium chloride; 5 mmol/l calcium chloride; 0.1% bovine serum albumin) and 20 μl of factor XIa from Kordia (0.45 nM in assay buffer). After 15 min of incubation, the enzyme reaction is started by addition of 20 μl of the factor XIa substrate Boc-Glu(OBzl)-Ala-Arg-AMC dissolved in assay buffer (10 μM in assay buffer) from Bachem, the mixture is incubated at room temperature (22° C.) for 30 min and fluorescence is then measured (excitation: 360 nm, emission: 460 nm). The measured emissions of the test batches with test substance are compared to those of control batches without test substance (only dimethyl sulphoxide instead of test substance in dimethyl sulphoxide), and IC50 values are calculated from the concentration/activity relationships.

T1 sequence (P03951 388-625 limits assumed): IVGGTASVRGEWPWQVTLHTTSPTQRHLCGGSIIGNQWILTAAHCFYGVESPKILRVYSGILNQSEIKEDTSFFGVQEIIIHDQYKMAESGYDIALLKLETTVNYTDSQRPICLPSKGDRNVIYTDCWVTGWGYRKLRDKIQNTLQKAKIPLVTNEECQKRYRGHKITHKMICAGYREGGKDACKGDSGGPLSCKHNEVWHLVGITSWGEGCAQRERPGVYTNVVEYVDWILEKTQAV
T1 sequence (P03951 19-387 partner limits assumed): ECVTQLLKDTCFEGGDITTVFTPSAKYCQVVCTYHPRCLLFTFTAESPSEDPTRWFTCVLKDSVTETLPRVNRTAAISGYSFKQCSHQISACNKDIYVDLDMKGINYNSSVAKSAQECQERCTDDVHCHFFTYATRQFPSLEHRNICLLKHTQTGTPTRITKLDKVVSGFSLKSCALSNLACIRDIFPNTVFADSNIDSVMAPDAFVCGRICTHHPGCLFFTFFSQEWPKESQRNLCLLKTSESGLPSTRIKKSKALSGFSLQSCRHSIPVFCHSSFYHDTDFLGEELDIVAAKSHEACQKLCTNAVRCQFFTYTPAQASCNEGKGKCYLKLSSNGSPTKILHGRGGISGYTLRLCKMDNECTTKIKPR

| Compound | IC50 |
| --- | --- |
| NC[C@H]1CC[C@H](C(=O)N[C@@H](Cc2ccc(-c3ccnc(N4CCOCC4)c3)cc2)C(=O)Nc2ccc3c(=O)[nH][nH]c3c2)CC1 [Example 36, N-alpha-{[trans-4-(Aminomethyl)cyclohexyl]carbonyl}-4-[2-(morpholin-4-yl)pyridin-4-yl]-N-(3-oxo-2,3-dihydro-1H-indazol-6-yl)-L-phenylalaninamide hydrochloride] | 7.2 nM |
| NC[C@H]1CC[C@H](C(=O)N[C@@H](Cc2ccc(-c3cncc(Cl)c3)cc2)C(=O)Nc2ccc(-c3nn[nH]n3)cc2)CC1 [Example 10, N-alpha-{[trans-4-(Aminomethyl)cyclohexyl]carbonyl}-4-(5-chloropyridin-3-yl)-N-[4-(2H-tetrazol-5-yl)phenyl]-L-phenylalaninamide hydrochloride] | 6.2 nM |
| COc1ccc(-c2ccc(C[C@H](NC(=O)[C@H]3CC[C@H](CN)CC3)C(=O)Nc3ccc(-c4nn[nH]n4)cc3)cc2)cn1 [Example 38, N-alpha-{[trans-4-(Aminomethyl)cyclohexyl]carbonyl}-4-(6-methoxypyridin-3-yl)-N-[4-(2H-tetrazol-5-yl)phenyl]-L-phenylalaninamide] | 4.8 nM |
| CN(C)CCCOc1ccc(-c2ccc(C[C@H](NC(=O)[C@H]3CC[C@H](CN)CC3)C(=O)Nc3ccc(-c4nn[nH]n4)cc3)cc2)cn1 [Example 6, N-alpha-{[trans-4-(Aminomethyl)cyclohexyl]carbonyl}-4-{6-[3-(dimethylamino)propoxy]pyridin-3-yl}-N-[4-(2H-tetrazol-5-yl)phenyl]-L-phenylalaninamide hydrochloride] | 15 nM |

Continued by falling IC50, values first:

| IC50 | Compound |
| --- | --- |
| 10 nM | NC[C@H]1CC[C@H](C(=O)N[C@@H](Cc2ccc(-c3ccc(O)nc3)cc2)C(=O)Nc2ccc(-c3nn[nH]n3)cc2)CC1 [Example 17, N-alpha-{[trans-4-(Aminomethyl)cyclohexyl]carbonyl}-4-(6-hydroxypyridin-3-yl)-N-[4-(2H-tetrazol-5-yl)phenyl]-L-phenylalaninamide hydrochloride] |
| 7.8 nM | COc1ccc(-c2ccc(C[C@H](NC(=O)[C@H]3CC[C@H](CN)CC3)C(=O)Nc3ccc4cn[nH]c4c3)cc2)c(C)n1 [Example 28, N-alpha-{[trans-4-(Aminomethyl)cyclohexyl]carbonyl}-N-1H-indazol-6-yl-4-(6-methoxy-2-methylpyridin-3-yl)-L-phenylalaninamide hydrochloride] |
| 5.7 nM | NC[C@H]1CC[C@H](C(=O)N[C@@H](Cc2ccc(-c3cnc(N4CCOCC4)nc3)cc2)C(=O)Nc2ccc(-c3nnn[nH]3)cc2)CC1 [Example 1, N-alpha-{[trans-4-(Aminomethyl)cyclohexyl]carbonyl}-4-[2-(morpholin-4-yl)pyrimidin-5-yl]-N-[4-(1H-tetrazol-5-yl)phenyl]-L-phenylalaninamide hydrochloride] |
| 3 nM | CCOc1ncccc1-c1ccc(C[C@H](NC(=O)[C@H]2CC[C@H](CN)CC2)C(=O)Nc2ccc(-c3nn[nH]n3)cc2)cc1 [Example 42, N-alpha-{[trans-4-(Aminomethyl)cyclohexyl]carbonyl}-4-(2-ethoxypyridin-3-yl)-N-[4-(2H-tetrazol-5-yl)phenyl]-L-phenylalaninamide hydrochloride] |
